Laboratory results taken from patent US8173133B2, “Acyl pseudodipeptides which carry a functionalized auxiliary arm” (OM Pharma, priority 1999, dated 2012).
In brackets after ≈: the same amount, converted by molar mass.

Experiments:
murine macrophage cells = assay: nitric oxide production by murine macrophage cells (Griess); assay type: cell-based, C57/BL6 mice; conditions: for Max concentration: concentration at maximum amplitude; for EC50 conc: concentration corresponding to 50% of maximum amplitude; for Min concentration: lowest concentration inducing a significant response
From the text: Six-week old male C57/BL6 mice are killed by CO2 inhalation. The hip, femur, tibia and posterior appendage bones are removed. The bone marrow is extracted from the bone lumen by injecting Dulbecco's Modified Eagle Medium (DH medium) from the end portions which had been excised. The stem cells are washed and resuspended (approximate cell concentration 4000 cells/ml) in DH medium supplemented with 20% equine serum (SH) and 30% L929 cell supernatant. L929 is a murine fibroblast cell line the supernatant fluid of which is rich in growth factor for macrophage cells (M-CSF). The cell suspension is divided into Petri dishes which are incubated for 8 days in an incubator at 37° C. under 8% CO2 and a moisture saturated atmosphere.
After 8 days, the stem cells have differentiated into mature macrophage cells. The macrophage cells are scraped off by rapid cooling, washed and resuspended in DH medium supplemented with 5% foetal calf serum (FCS), amino acids and antibiotics. The cell density is adjusted to 700 000 cells/ml.
Products previously dissolved in DH medium supplemented with 5% FCS, amino acids and antibiotics are serially diluted directly in microtiter plates. The products are tested in triplicates and each microtiter plate comprises a negative control containing plain medium. The final volume in each well is 100 μl.
100 μl of cell suspension are added to diluted solutions of such products and the cells are incubated for 22 hours in an incubator at 37° C., under 8% CO2 and a moisture saturated atmosphere. At the end of the incubation period with the products, 100 μl of supernatant are withdrawn and the nitrite concentration is determined by running a Griess reaction.
100 μl of Griess reagent (5 mg/ml of sulfanilamide+0.5 mg/ml of N-(1-naphtylethylene diamine hydrochloride)) in 2.5% aq. phosphoric acid, are added to each well. The microtiter plates are read with a spectrophotometer at 562 nm wavelength against a reference sample at 690 nm. The nitrite concentration is proportional to nitric oxide content being formed. The nitrite content is determined based on a standard curve.
The results are given as mean value±standard deviation and plotted as a dose versus response curve.
From this dose versus response curve, 3 curve variables are computed:
Max: maximum curve amplitude and corresponding concentration
EC50: concentration corresponding to 50% of maximum amplitude
Min: lowest concentration inducing a significant proliferation corresponding to the blank±3× standard deviation value
Concentration values corresponding to EC50 and Min are determined from line segments joining different points on the curve.
If the curve has no plateau phase but an ascending configuration for the highest concentration being tested, a “>” sign is shown before “Max” and “EC50” values.

[1] = system: Limulus Amoebocyte Lysate
[2] = system: CD83, CD86 surface markers of predendritic cells (DC-6); assay: dendritic cell differentiation test: CD83, CD86 surface marker expression; assay type: cell-based, human; conditions: for CD86 % CD / CD86 Fluorescence: 10 μg/ml; for CD86 % CD: products redissolved in pyrogen-free water, % of dendritic cells; for CD86 Fluorescence: mean fluorescence value
Experimental: The ability of products of the invention to induce maturation of predendritic cells into dendritic cells was assessed. The following parameters were measured: FITC-Dextran conjugate take-up and expression of CD83, CD86 surface markers.
Mononucleated cells of peripheral blood are isolated from buffy coats of healthy donors. Purified monocytes by adherence selection are resuspended in RPMI-1640 medium containing 10% of foetal calf serum (FCS), GM-CSF and IL-4 (10 ng/ml) at a density of 1×10^6 cells/ml. Cells are divided into Petri Dishes (10×10^6 cells per dish) and cultured for 6 days with a change to fresh medium after 3 days. Cells thus obtained are called predendritic cells (DC-6). Maturation of predendritic cells into mature dendritic cells is achieved by incubating cells with diluted solutions of the products or LPS (positive control) for 3 more days (see product section below). At day 9 (DC-9), cells are harvested and analyzed for different indicators of dendritic cell maturation: assessment of CD83, CD86 surface marker expression as well as of their ability to take up FITC-Dextran conjugate. All these parameters are analyzed by an EPICS-XL-MCL model FACS (Coulter Immunology, Hialeah, […]).
Expression of surface markers is given as % of mean fluorescence of LPS-activated cells (positive control); FITC-Dextran conjugate take-up rate is calculated based on take-up of cells maintained in basic medium and is expressed in %.
Solutions are incubated at 37° C. for 20 minutes, subjected to vigorous stirring during 3 minutes and then diluted to 100 μg/ml in RPMI-1640 culture medium and used in diluted state at concentrations ranging from 10 μg/ml to 0.03 μg/ml. Reference Product: E. coli lipopolysaccharide (LPS, DIFCO, Detroit, Mich., U.S.A.), as a 5 mg/ml stock solution in PBS. An intermediate 100 μg/ml solution is prepared in RPMI 1640 culture medium. Concentrations of dilute solutions being tested range from 1 μg/ml to 0.03 μg/ml.
In another series of experiments, all acyl dipeptide-like compounds were freeze-dried and directly redissolved into pyrogen-free water. Different products as well as LPS control are tested at a concentration of 10 μg/ml. Results are given as % of dendritic cells and mean fluorescence value for dextran phagocytosis or CD86 surface marker expression.

[3] = system: human peripheral blood mononuclear cells; assay: α TNF production by human peripheral blood mononuclear cells; assay type: cell-based; conditions: 18 hours
Experimental: Mononuclear cells of peripheral blood are recovered from buffy coats of 6 healthy donors. Such buffy coat cells are resuspended and mononuclear cells are isolated by centrifugation on a Ficoll-Paque gradient (Amersham Pharmacia). Purified mononuclear cells are resuspended into RPMI-1640 medium supplemented with 10% FCS, antibiotics, mercaptoethanol and L-glutamine. Cell concentration is adjusted to 2×10^6 viable cells/ml
100 μl of each one of these solutions of acyl dipeptide-like compounds bearing an accessory functional side chain spacer, diluted 100-, 10- or 1-fold in RPMI medium 1640, are dispensed into a microtiter plate. Samples are tested in triplicates, and each microtiter plate includes a negative control made up of plain medium. Dilutions of E. coli LPS (ranging grom 1 to 0.00001 μg/ml) are used as a positive control.
100 μl of the cell suspension are added to each well containing product dilute solutions or control. Cells are incubated with the products for 18 hours in an incubator at 37° C., under 5% CO2 and a moisture saturated atmosphere.
At the end of the incubation period, microtiter plates are centrifuged, and the supernatant fluids are pooled and frozen at −80° C. as aliquots until time of ELISA assay.
Concentration of α TNF secreted by mononuclear cells is determined by chemiluminescent ELISA (QuantiGlo #QTAOO R&D kit). 4-fold supernatant fluid dilutions are dispensed into each well of the microtiter plate to which anti-αTNF antibodies are bound. The microtiter plate is incubated for 4 hours at room temperature. After washing, peroxidase-conjugated anti-human a TNF antibody is added. Following a 2 hour incubation period and thorough washing, a chemiluminescent substrate is added and chemilunescence is read after 20 minutes. α TNF content in the supernatant fluid is determined with respect to a standard curve covering the 7000 to 0.7 pg/ml range.
Results are expressed in pg/ml of α TNF produced. Results derive from an experiment representative of acyl-dipeptide-like compound activity

Row | Compound | Max concentration (murine macrophage cells) [µg/mL] | EC50 conc (murine macrophage cells) [µg/mL] | Min concentration (murine macrophage cells) [µg/mL] | LAL EU/mg of product [1] | LAL ng of LPS equivalent per mg of product [1] | CD86 % CD [2] [%] | CD86 Fluorescence [2] | α TNF produced ([3]; product 1 μg/ml) [pg/mL] | α TNF produced ([3]; product 10 μg/ml) [pg/mL] | α TNF produced ([3]; product 100 μg/ml) [pg/mL] | concentration inducing an increase in expression of CD83 and CD86 surface markers ([2]; FIGS. 75 & 76)
1 | CCCCCCCCCCCC(=O)O[C@H](CCCCCCCCCCC)CC(=O)N[C@H](CC(=O)N[C@@H](CC(=O)O)C(=O)O)C(=O)NCCC[C@H](COC(=O)CCCCCN)NC(=O)C[C@H](O)CCCCCCCCCCC [OM-197-Asp-AC, N—[(R)-3-dodecanoyloxytetradecanoyl]-D-aspartic acid, α-N-{(4R)-5-(6-aminohexanoyloxy)-4-[(R)-3-hydroxytetradecanoyl-amino]-pentyl}amide β-N-[(1S)-1,2-dicarboxyethyl]Amide] | > 100 | > 7.04 | 2.00 | 2307 EU/mg of product | 184.6 ng of LPS equivalent per mg of product | 26.7 | 2.4 | 20 | 172 | 132 | 
2 | CCCCCCCCCCCC(=O)O[C@H](CCCCCCCCCCC)CC(=O)N[C@H](CC(=O)O)C(=O)NCCC[C@H](COC(=O)CCCCC(O)CO)NC(=O)C[C@H](O)CCCCCCCCCCC (stereo partly drawn) [OM-197-MC-FV5, N—[(R)-3-dodecanoyloxytetradecanoylamino]-D-aspartic acid, α-N-{(4R)-5-hydroxy-4-[(R)-3-hydroxytetra-decanoylamino]-pentyl}amide 5-O-(6,7-dihydroxyheptanoate)] | 16 | 2.56 (≈ 2.53 µM) | 0.67 | 49.3 EU/mg of product | 3.9 ng of LPS equivalent per mg of product | 74.5 | 5.6 | 0 | 104 | 116 | 
3 | CCCCCCCCCCCC(=O)O[C@H](CCCCCCCCCCC)CC(=O)NC(CCOP(=O)(O)O)C(=O)NCCCC(COC(=O)CCCCC(O)CO)NC(=O)C[C@H](O)CCCCCCCCCCC (stereo partly drawn) [OM-197-FV6, 3-[(R)-dodecanoyloxytetradecanoylamino]-4oxo-5-aza-9-[(R)-3-hydroxytetradecanoylamino]-decan-1,10-diol 1-dihydrogenphate 10-(6,7-dihydroxyheptanoate)] | 25.6 | 1.49 (≈ 1.38 µM) | 0.20 | 540 EU/mg of product | 43 ng of LPS equivalent per mg of product | 62.9 | 4.9 | 0 | 104 | 88 | no effect at all
4 | CCCCCCCCCCCC(=O)O[C@H](CCCCCCCCCCC)CC(=O)N[C@H](CC(=O)N[C@@H](CC(=O)O)C(=O)O)C(=O)NCCC[C@H](CO)NC(=O)C[C@H](O)CCCCCCCCCCC [OM-197-Asp, N—[(R)-3-dodecanoyloxytetradecanoyl]-D-aspartic acid, α-N-{(4R)-5-hydroxy-4-[(R)-3-hydroxytetradecanoylamino]-pentyl}Amide β-N-[(1S)-1,2-Dicarboxyethyl]Amide] | 51 | 0.95 (≈ 0.966 µM) | 0.086 | <2.5 EU/mg of product | <0.2 ng of LPS equivalent per mg of product | 29.0 | 2.6 | 0 | 28 | 80 | 
5 | CCCCCCCCCCCC(=O)O[C@H](CCCCCCCCCCC)CC(=O)N[C@H](CC(=O)O)C(=O)NCCC[C@H](COC(=O)CCCCCN)NC(=O)C[C@H](O)CCCCCCCCCCC [OM-197-MC-AC, N—[(R)-3-dodecanoyloxytetradecanoyl]-D-aspartic acid, α-N-{(4R)-5-(6-aminohexanoyloxy)-4-[(R)-3-hydroxytetradecanoylamino]pentyl}amide] | 25 | 4.91 (≈ 5 µM) | 0.91 |  |  | 67.4 | 5.2 | 12 | 140 | 144 | 
